Source: the NIST ThermoML archive (doi:10.1016/j.jct.2017.08.004)
± gives the expanded uncertainty stated by the source.

Assay: molar heat capacity at constant pressure
Details: 101.33 kPa, Crystal

OC[C@H](O)C(O)[C@@H](O)CO [L-(-)-arabitol]
Details | molar heat capacity at constant pressure [J/K/mol]
1 K, relaxation calorimetry | 0.0009071 ± 0.00011
1.925 K, relaxation calorimetry | 0.00486 ± 0.0004
2 K, relaxation calorimetry | 0.00537 ± 0.00037
2.126 K, relaxation calorimetry | 0.006333 ± 0.00052
2.35 K, relaxation calorimetry | 0.008531 ± 0.00065
2.603 K, relaxation calorimetry | 0.01139 ± 0.00085
2.89 K, relaxation calorimetry | 0.01551 ± 0.0011
3 K, relaxation calorimetry | 0.01737 ± 0.0011
3.204 K, relaxation calorimetry | 0.02118 ± 0.0015
3.551 K, relaxation calorimetry | 0.02864 ± 0.0021
3.938 K, relaxation calorimetry | 0.03916 ± 0.0028
4 K, relaxation calorimetry | 0.04172 ± 0.0026
4.366 K, relaxation calorimetry | 0.05484 ± 0.0039
4.845 K, relaxation calorimetry | 0.07705 ± 0.0055
5 K, relaxation calorimetry | 0.08452 ± 0.0053
5.374 K, relaxation calorimetry | 0.1069 ± 0.0076
5.962 K, relaxation calorimetry | 0.1505 ± 0.011
6 K, relaxation calorimetry | 0.1535 ± 0.0096
6.615 K, relaxation calorimetry | 0.2138 ± 0.015
7 K, relaxation calorimetry | 0.26 ± 0.016
7.345 K, relaxation calorimetry | 0.3087 ± 0.022
8 K, relaxation calorimetry | 0.4176 ± 0.026
8.151 K, relaxation calorimetry | 0.4472 ± 0.031
9 K, relaxation calorimetry | 0.6348 ± 0.039
9.046 K, relaxation calorimetry | 0.6445 ± 0.045
10 K, relaxation calorimetry | 0.9169 ± 0.056
10.12 K, relaxation calorimetry | 0.9515 ± 0.067
11.21 K, relaxation calorimetry | 1.346 ± 0.094
12.43 K, relaxation calorimetry | 1.885 ± 0.13
13.79 K, relaxation calorimetry | 2.589 ± 0.18
15 K, relaxation calorimetry | 3.316 ± 0.2
15.3 K, relaxation calorimetry | 3.507 ± 0.24
16.99 K, relaxation calorimetry | 4.683 ± 0.33
18.86 K, relaxation calorimetry | 6.145 ± 0.43
20 K, relaxation calorimetry | 7.063 ± 0.43
21 K, relaxation calorimetry | 7.93 ± 0.32
23.34 K, relaxation calorimetry | 10 ± 0.41
25 K, relaxation calorimetry | 11.59 ± 0.71
25.89 K, relaxation calorimetry | 12.41 ± 0.51
28.74 K, relaxation calorimetry | 15.2 ± 0.62
30 K, relaxation calorimetry | 16.48 ± 1
31.91 K, relaxation calorimetry | 18.4 ± 0.75
35 K, relaxation calorimetry | 21.5 ± 1.3
35.44 K, relaxation calorimetry | 21.96 ± 0.89
39.34 K, relaxation calorimetry | 25.96 ± 1.1
40 K, relaxation calorimetry | 26.56 ± 1.6
43.67 K, relaxation calorimetry | 30.28 ± 1.2
45 K, relaxation calorimetry | 31.57 ± 1.9
48.47 K, relaxation calorimetry | 34.84 ± 1.4
50 K, relaxation calorimetry | 36.42 ± 2.2
53.79 K, relaxation calorimetry | 39.93 ± 1.6
55 K, relaxation calorimetry | 41.06 ± 2.5
59.71 K, relaxation calorimetry | 45.44 ± 1.8
60 K, relaxation calorimetry | 45.6 ± 2.8
65 K, relaxation calorimetry | 50.22 ± 3.1
66.3 K, relaxation calorimetry | 51.38 ± 2.1
70 K, relaxation calorimetry | 54.55 ± 3.3
73.59 K, relaxation calorimetry | 57.52 ± 2.3
75 K, relaxation calorimetry | 58.73 ± 3.6
80 K, relaxation calorimetry | 62.81 ± 3.8
81.71 K, relaxation calorimetry | 64.34 ± 2.6
85 K, relaxation calorimetry | 66.8 ± 4.1
90 K, relaxation calorimetry | 70.7 ± 4.3
90.67 K, relaxation calorimetry | 71.56 ± 2.9
95 K, relaxation calorimetry | 74.53 ± 4.6
100 K, relaxation calorimetry | 78.28 ± 4.8
100.62 K, relaxation calorimetry | 78.32 ± 3.2
110 K, relaxation calorimetry | 85.55 ± 5.2
110.77 K, relaxation calorimetry | 85.86 ± 3.5
120 K, relaxation calorimetry | 92.52 ± 5.7
120.75 K, relaxation calorimetry | 93.29 ± 3.8
130 K, relaxation calorimetry | 99.22 ± 6.1
130.83 K, relaxation calorimetry | 99.89 ± 4.1
140 K, relaxation calorimetry | 105.69 ± 6.5
141 K, relaxation calorimetry | 106.35 ± 4.3
150 K, relaxation calorimetry | 111.98 ± 6.9
151.08 K, relaxation calorimetry | 112.59 ± 4.6
160 K, relaxation calorimetry | 118.13 ± 7.2
161.19 K, relaxation calorimetry | 118.71 ± 4.8
170 K, relaxation calorimetry | 124.19 ± 7.6
171.26 K, relaxation calorimetry | 124.81 ± 5.1
180 K, relaxation calorimetry | 130.18 ± 8
181.32 K, relaxation calorimetry | 131.15 ± 5.3
188.15 K, Small sample (50 mg) DSC | 129.04 ± 26
189.15 K, Small sample (50 mg) DSC | 130.57 ± 26
190 K, relaxation calorimetry | 136.16 ± 8.3
190.15 K, Small sample (50 mg) DSC | 131.98 ± 26
191.15 K, Small sample (50 mg) DSC | 132.97 ± 27
191.4 K, relaxation calorimetry | 137.23 ± 5.6
192.15 K, Small sample (50 mg) DSC | 133.65 ± 27
193.15 K, Small sample (50 mg) DSC | 134.27 ± 27
194.15 K, Small sample (50 mg) DSC | 135.12 ± 27
195.15 K, Small sample (50 mg) DSC | 135.91 ± 27
196.15 K, Small sample (50 mg) DSC | 136.66 ± 27
197.15 K, Small sample (50 mg) DSC | 137.42 ± 28
198.15 K, Small sample (50 mg) DSC | 138.16 ± 28
199.15 K, Small sample (50 mg) DSC | 138.8 ± 28
200 K, relaxation calorimetry | 142.15 ± 8.7
200.15 K, Small sample (50 mg) DSC | 139.49 ± 28
201.15 K, Small sample (50 mg) DSC | 140.3 ± 28
201.57 K, relaxation calorimetry | 142.67 ± 5.8
202.15 K, Small sample (50 mg) DSC | 141.06 ± 28
203.15 K, Small sample (50 mg) DSC | 141.64 ± 28
204.15 K, Small sample (50 mg) DSC | 142.39 ± 29
205.15 K, Small sample (50 mg) DSC | 143.02 ± 29
206.15 K, Small sample (50 mg) DSC | 143.74 ± 29
207.15 K, Small sample (50 mg) DSC | 144.43 ± 29
208.15 K, Small sample (50 mg) DSC | 145.06 ± 29
209.15 K, Small sample (50 mg) DSC | 145.72 ± 29
210 K, relaxation calorimetry | 148.19 ± 9.1
210.15 K, Small sample (50 mg) DSC | 146.38 ± 29
211.15 K, Small sample (50 mg) DSC | 147.05 ± 29
211.68 K, relaxation calorimetry | 149.03 ± 6
212.15 K, Small sample (50 mg) DSC | 147.72 ± 30
213.15 K, Small sample (50 mg) DSC | 148.33 ± 30
214.15 K, Small sample (50 mg) DSC | 149.06 ± 30
215.15 K, Small sample (50 mg) DSC | 149.6 ± 30
216.15 K, Small sample (50 mg) DSC | 150.38 ± 30
217.15 K, Small sample (50 mg) DSC | 151.13 ± 30
218.15 K, Small sample (50 mg) DSC | 152.05 ± 30
219.15 K, Small sample (50 mg) DSC | 152.76 ± 31
220 K, relaxation calorimetry | 154.3 ± 9.4
220.15 K, Small sample (50 mg) DSC | 153.39 ± 31
221.15 K, Small sample (50 mg) DSC | 153.99 ± 31
221.77 K, relaxation calorimetry | 155.91 ± 6.3
222.15 K, Small sample (50 mg) DSC | 154.72 ± 31
223.15 K, Small sample (50 mg) DSC | 155.35 ± 31
224.15 K, Small sample (50 mg) DSC | 155.94 ± 31
225.15 K, Small sample (50 mg) DSC | 156.64 ± 31
226.15 K, Small sample (50 mg) DSC | 157.32 ± 32
227.15 K, Small sample (50 mg) DSC | 157.87 ± 32
228.15 K, Small sample (50 mg) DSC | 158.58 ± 32
229.15 K, Small sample (50 mg) DSC | 159.08 ± 32
230 K, relaxation calorimetry | 160.49 ± 9.8
230.15 K, Small sample (50 mg) DSC | 159.71 ± 32
231.15 K, Small sample (50 mg) DSC | 160.4 ± 32
231.87 K, relaxation calorimetry | 161.72 ± 9.9
232.15 K, Small sample (50 mg) DSC | 160.98 ± 32
233.15 K, Small sample (50 mg) DSC | 161.67 ± 32
234.15 K, Small sample (50 mg) DSC | 162.2 ± 33
235.15 K, Small sample (50 mg) DSC | 162.87 ± 33
236.15 K, Small sample (50 mg) DSC | 163.51 ± 33
237.15 K, Small sample (50 mg) DSC | 164.14 ± 33
238.15 K, Small sample (50 mg) DSC | 164.86 ± 33
239.15 K, Small sample (50 mg) DSC | 165.4 ± 33
240 K, relaxation calorimetry | 166.8 ± 10
240.15 K, Small sample (50 mg) DSC | 166.04 ± 33
241.15 K, Small sample (50 mg) DSC | 166.73 ± 33
241.87 K, relaxation calorimetry | 168.05 ± 10
242.15 K, Small sample (50 mg) DSC | 167.44 ± 34
243.15 K, Small sample (50 mg) DSC | 168.16 ± 34
